# Reference: ChEMBL document CHEMBL4431357, “Discovery of a novel class of highly potent inhibitors of the p53-MDM2 interaction by structure-based design starting from a conformational argument” (Bioorg Med Chem Lett, 2016)
# Target: Tumour suppressor p53/oncoprotein Mdm2 (Homo sapiens, UniProt Q00987)
# Assay: Inhibition of C-terminal biotin-tagged streptavidin labelled human MDM2 ( 2 to 188 residues)/Cy5-labelled p53 (18 to 26 residues)(unknown origin) interaction after 15 mins by TR-FRET assay
# Type: protein assay
# Chain of Tumour suppressor p53/oncoprotein Mdm2 (P04637 whole entry, the tested form may be a part): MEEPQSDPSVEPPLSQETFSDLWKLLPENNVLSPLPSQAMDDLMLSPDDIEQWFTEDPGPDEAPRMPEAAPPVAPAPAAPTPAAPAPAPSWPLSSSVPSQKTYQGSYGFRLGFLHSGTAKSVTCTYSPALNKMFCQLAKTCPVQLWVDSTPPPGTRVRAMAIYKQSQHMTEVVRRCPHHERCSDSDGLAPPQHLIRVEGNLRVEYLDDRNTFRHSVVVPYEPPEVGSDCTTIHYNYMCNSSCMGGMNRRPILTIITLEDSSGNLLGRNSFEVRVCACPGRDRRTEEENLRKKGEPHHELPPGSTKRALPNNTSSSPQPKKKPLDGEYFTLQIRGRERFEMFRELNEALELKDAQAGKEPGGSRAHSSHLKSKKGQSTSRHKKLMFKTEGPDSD
# Chain of Tumour suppressor p53/oncoprotein Mdm2 (Q00987 whole entry, the tested form may be a part): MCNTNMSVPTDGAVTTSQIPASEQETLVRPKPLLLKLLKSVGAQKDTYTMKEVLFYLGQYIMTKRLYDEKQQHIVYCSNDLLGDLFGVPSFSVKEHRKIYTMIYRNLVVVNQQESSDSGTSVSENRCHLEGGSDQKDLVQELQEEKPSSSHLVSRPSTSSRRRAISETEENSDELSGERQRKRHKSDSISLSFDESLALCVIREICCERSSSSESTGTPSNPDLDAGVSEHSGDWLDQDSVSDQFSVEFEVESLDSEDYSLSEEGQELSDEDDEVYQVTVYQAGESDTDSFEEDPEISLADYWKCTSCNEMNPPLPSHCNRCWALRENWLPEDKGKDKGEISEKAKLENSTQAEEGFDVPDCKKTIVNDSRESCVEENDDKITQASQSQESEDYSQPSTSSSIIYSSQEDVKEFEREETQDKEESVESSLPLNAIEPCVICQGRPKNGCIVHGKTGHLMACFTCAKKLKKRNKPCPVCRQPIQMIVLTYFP
row,SMILES,IC50 [nM]
1,Cc1ccc(N2C(=O)c3[nH]nc(C)c3C2c2ccc(Cl)cc2)cc1 (stereo not given),1500
2,Cc1cc(Cl)ccc1C1c2c(C(C)C)n[nH]c2C(=O)N1c1cc(Cl)ccc1C (racemic),4.2
3,CC(C)c1n[nH]c2c1C(c1ccc(Cl)cc1)N(c1cccc(Cl)c1)C2=O (racemic),32

# The remaining compounds from weak to strong by IC50, led by results:
row,IC50 [nM],SMILES
1,350,Cc1n[nH]c2c1C(c1ccc(Cl)cc1)N(c1cccc(Cl)c1)C2=O (racemic)
2,18,CC(C)(C)c1n[nH]c2c1C(c1ccc(Cl)cc1)N(c1cccc(Cl)c1)C2=O (racemic)
